Experimental data published in article PMC10487436, “Towards Anticancer and Antibacterial Agents: Design and Synthesis of 1,2,3-Triazol-quinobenzothiazine Derivatives” (International Journal of Molecular Sciences, 2023).

How the values were obtained:
[1] = tested on: methicillin-resistant S. aureus SA 3202; test: MBC, agar aliquot subculture method, MRSA1; format: cell-based; conditions: Staphylococcus aureus
Description: (§1) For the above-mentioned strains/isolates, the agar aliquot subculture method was used as a test for bactericidal agents. After the MIC value determination, the inoculum was transferred to CaMH (Oxoid) for staphylococci, BHI (Oxoid) for enterococci, and Middlebrook 7H9 (Difco) for mycobacteria medium using a multipoint inoculator. As indicated above, the plates were incubated on a thermostat at 37 °C for the appropriate time for each micro-organism. The lowest concentration of test compound at which ≤5 colonies were obtained was then evaluated as MBC, corresponding to a 99.9% decrease in CFU relative to the original inoculum.

[2] = tested on: methicillin-resistant S. aureus SA 630; test: MBC, agar aliquot subculture method, MRSA2; format: cell-based; conditions: Staphylococcus aureus
Description: as §1

[3] = tested on: Mycobacterium smegmatis ATCC 700084; test: MIC, broth dilution micro-method, MS; format: cell-based; conditions: Mycolicibacterium smegmatis, ATCC700084, 72 h; 3 days at 37 °C
[4] = tested on: vancomycin-resistant E. faecalis VRE 368; test: MIC, microtitration broth method, VRE2; format: cell-based; conditions: Enterococcus faecalis, 24 h at 37 °C
Description: (§2) In vitro antibacterial activity of the synthesized compounds was evaluated against representatives of multidrug-resistant bacteria, three clinical isolates of methicillin-resistant S. aureus: clinical isolates of animal origin, MRSA 63718 (Department of Infectious Diseases and Microbiology, Faculty of Veterinary Medicine, University of Veterinary Sciences Brno, Czech Republic), carrying the mecA gene; and MRSA SA 630 and MRSA SA 3202 [52] (National Institute of Public Health, Prague, Czech Republic), both of human origin. […] Vancomycin- and methicillin-susceptible S. aureus ATCC 29213 and vancomycin-susceptible Enterococcus faecalis ATCC 29212, obtained from the American Type Culture Collection, were used as the reference and quality control strains. Three vanA gene-carrying vancomycin-resistant isolates of E. faecalis (VRE 342B, VRE 368, VRE 725B) were provided by Oravcova et al..
(§3) The minimum inhibitory concentrations (MICs) were evaluated by the microtitration broth method according to the CLSI, with some modifications. The compounds were dissolved in DMSO (Sigma, St. Louis, MO, USA) to obtain a concentration of […] and diluted in a microtitration plate in an appropriate medium, i.e., Cation Adjusted Mueller–Hinton Broth (CaMH, Oxoid, Basingstoke, UK) for staphylococci, and Brain Heart Infusion Broth (BHI, Oxoid) for enterococci, to reach the final concentration of 256–0.125 µg/mL. Microtiter plates were inoculated with test micro-organisms so that the final concentration of bacterial cells was 10^5. […] A drug-free control and a sterility control were included. The plates were incubated for 24 h at 37 °C for staphylococci and enterococci. […] The experiments were repeated three times.

[5] = tested on: Mycobacterium marinum CAMP 5644; test: MBC, agar aliquot subculture method, MM; format: cell-based; conditions: CAMP5644
Description: as §1

[6] = tested on: Enterococcus faecalis ATCC 29213; test: MIC, microtitration broth method, EF; format: cell-based; conditions: ATCC29213, 24 h at 37 °C
[7] = tested on: methicillin-resistant S. aureus SA 3202; test: MIC, microtitration broth method, MRSA1; format: cell-based; conditions: Staphylococcus aureus; 24 h at 37 °C
Description: as §2, §3

[8] = tested on: vancomycin-resistant E. faecalis VRE 342B; test: MIC, microtitration broth method, VRE1; format: cell-based; conditions: Enterococcus faecalis, 24 h at 37 °C
Description: as §2, §3

[9] = tested on: Mycobacterium smegmatis ATCC 700084; test: MBC, agar aliquot subculture method, MS; format: cell-based; conditions: Mycolicibacterium smegmatis, ATCC700084
Description: as §1

[10] = tested on: methicillin-resistant S. aureus 63718; test: MIC, microtitration broth method, MRSA3; format: cell-based; conditions: Staphylococcus aureus; 24 h at 37 °C
Description: as §2, §3

[11] = tested on: Staphylococcus aureus ATCC 29213; test: MIC, microtitration broth method, SA; format: cell-based; conditions: ATCC29213, 24 h at 37 °C
Description: as §2, §3

[12] = tested on: vancomycin-resistant E. faecalis VRE 725B; test: MIC, microtitration broth method, VRE3; format: cell-based; conditions: Enterococcus faecalis, 24 h at 37 °C
Description: as §2, §3

[13] = tested on: SNB-19 (human glioblastoma); test: WST-1 proliferation assay, SNB-19; format: cell-based; conditions: Homo sapiens, SNB-19, 72 h exposure
Description: (§4) Compounds were evaluated for their antiproliferative activity using three cultured cell lines: A549 (human lung carcinoma, ATCC, Manassas, VA, USA), SNB-19 (human glioblastoma, DSMZ, German Collection of Microorganisms and Cell Cultures), T-47D (human breast cancer, ATCC, Manassas, VA, USA), and NHDF (normal human dermal fibroblasts, ATCC, Manassas, VA, USA). The cultured cells were kept at 37 °C and 5% CO2. The cells were seeded (1 × 10^4 cells/well/100 μL DMEM supplemented with 10% FCS, streptomycin, and penicillin) using 96-well plates (corning). Cells were counted in a hemocytometer (Burker chamber) using a phase contrast Olympus IX50 microscope equipped with a Sony SSC-DC58 AP camera and an Olympus DP10 digital camera.
(§5) The antiproliferative effect of the compounds exerted on cancer and normal cells was determined using the Cell Proliferation Reagent WST-1 assay (Roche Molecular Biochemicals, Mannheim, Germany). This assay is based on a colorimetric method using the enzymatic ability of viable cells to cause the bright, red-colored stable tetrazolium monosodium salt [2-(4-iodophenyl)-3-(4-nitrophenyl)-5-(2,4-disulfophenyl)–2H-tetra-zolium] to transform into the dark, red-colored soluble formazan. […] An increase in the amount of formazan dye formed correlated with the number of metabolically active cells in the culture. The formazan dye produced by metabolically active cells was quantified by absorbance readings at appropriate wavelengths. The examined cells were exposed to the tested compounds (1 mM DMSO stock) for 72 h at various concentrations (0.1–100 μM). The control was performed in order to eliminate the DMSO effect at the concentration used. Cell cultures were incubated with WST-1 (10 μL) for 1 h. The absorbance of the samples was measured against a background control at 450 nm using a microplate reader with a reference wavelength at 600 nm. The obtained results are expressed as the means of at least two independent experiments performed in triplicate. The antiproliferative activity of the tested compounds was compared to that of cisplatinum. The values of IC50 (a concentration of a compound that is required for 50% inhibition) were calculated from the dose-response relationship with respect to control. The results were reported as the mean (±std) of three separate experiments.

[14] = tested on: methicillin-resistant S. aureus SA 630; test: MIC, microtitration broth method, MRSA2; format: cell-based; conditions: Staphylococcus aureus; 24 h at 37 °C
Description: as §2, §3

[15] = tested on: A549 (human lung carcinoma); test: WST-1 proliferation assay, A549; format: cell-based; conditions: Homo sapiens, A549, 72 h exposure
Description: as §4, §5

[16] = tested on: T-47D (human breast cancer); test: WST-1 proliferation assay, T47D; format: cell-based; conditions: Homo sapiens, T47D, 72 h exposure
Description: as §4, §5

[17] = tested on: Staphylococcus aureus ATCC 29213; test: MBC, agar aliquot subculture method, SA; format: cell-based; conditions: ATCC29213
Description: as §1

[18] = tested on: NHDF (normal human dermal fibroblasts); test: WST-1 proliferation assay, NHDF; format: cell-based; conditions: Homo sapiens, NHDF, normal cells, 72 h exposure
Description: as §4, §5

[19] = tested on: Mycobacterium marinum CAMP 5644; test: MIC, broth dilution micro-method, MM; format: cell-based; conditions: CAMP5644, 504 h, 21 days at 28 °C
[20] = tested on: methicillin-resistant S. aureus 63718; test: MBC, agar aliquot subculture method, MRSA3; format: cell-based; conditions: Staphylococcus aureus
Description: as §1

[21] = tested on: Mycobacterium smegmatis ATCC 700084; conditions: 3 days; for Conc.: lowest multiple of MBC with at least 70% inhibition of respiratory activity / Conc.: lowest multiple of MIC with at least 70% inhibition of respiratory activity: MTT; for M. smegmatis Respiration Inhibition: at the concentration (lowest multiple of MIC with at least 70% inhibition)

Structure (SMILES)	MBC [1]	MBC [2]	MIC [3]	MIC [4]	MBC [5]	MIC [6]	MIC [7]	MIC [8]	MBC [9]	MIC [10]	MIC [11]	MIC [12]	IC50 [13]	MIC [14]	IC50 [15]	IC50 [16]	MBC [17]	IC50 [18]	MIC [19]	MBC [20]	also measured
C[n+]1cc2c(c3ccccc31)Nc1cc(OCc3cn(CSc4ccccc4)nn3)ccc1S2 [2k, 5-Methyl-10-(1-(phenylthio)methyl-1H-1,2,3-triazol-4-yl)methoxy-12H-quino [3,4-b][1,4] benzothiazinium chloride]	65.5 µM	65.5 µM	32.7 µM	524 µM	32.7 µM	524 µM	65.5 µM	> 524 µM	32.7 µM	16.3 µM	65.5 µM	524 µM	6.1 ± 0.3 µM	65.5 µM	16.4 ± 0.9 µM	10.6 ± 0.9 µM	65.5 µM	> 100 µM	32.7 µM	16.3 µM	
C[n+]1cc2c(c3ccccc31)Nc1c(OCc3cn(CSc4ccccc4)nn3)cccc1S2 [2l, 5-Methyl-11-(1-(phenylthio)methyl-1H-1,2,3-triazol-4-yl)methoxy-12H-quino [3,4-b][1,4] benzothiazinium chloride]	131 µM	65.5 µM	16.3 µM	524 µM	16.3 µM	524 µM	65.5 µM	524 µM	16.3 µM	32.7 µM	65.5 µM	524 µM	9.6 ± 0.8 µM	65.5 µM	14.1 ± 0.6 µM	4.3 ± 0.2 µM	65.5 µM	> 100 µM	16.3 µM	32.7 µM	Conc.: lowest multiple of MBC with at least 70% inhibition of respiratory activity [21]: 2× MIC (2× MBC); Conc.: lowest multiple of MIC with at least 70% inhibition of respiratory activity [21]: 2× MIC (2× MBC); M. smegmatis Respiration Inhibition [21]: 87.3%
C[n+]1cc2c(c3ccccc31)Nc1ccc(OCc3cn(Cc4ccc([N+](=O)[O-])cc4)nn3)cc1S2 [2g, 5-Methyl-9-[1-(4-nitrobenzyl)-1H-1,2,3-triazol-4-yl]methoxy-12H-quino [3,4-b][1,4]benzothiazinium chloride]	262 µM		32.7 µM	262 µM	131 µM	262 µM	262 µM	524 µM	65.5 µM	65.5 µM	262 µM	131 µM	8.4 ± 0.7 µM	262 µM	4.5 ± 0.3 µM	11.8 ± 0.5 µM	262 µM	27.6 ± 0.6 µM	65.5 µM	65.5 µM	
C[n+]1cc2c(c3ccccc31)Nc1ccc(OCc3cn(CSc4ccccc4)nn3)cc1S2 [2j, 5-Methyl-9-(1-(phenylthio)methyl-1H-1,2,3-triazol-4-yl)methoxy-12H-quino [3,4-b][1,4]benzothiazinium chloride]	65.5 µM	65.5 µM	16.3 µM	524 µM	16.3 µM	524 µM	65.5 µM	524 µM	16.3 µM	32.7 µM	65.5 µM	524 µM	8.8 ± 0.4 µM	65.5 µM	10.5 ± 0.7 µM	19.3 ± 1.2 µM	65.5 µM	28.7 ± 1.2 µM	16.3 µM	32.7 µM	Conc.: lowest multiple of MBC with at least 70% inhibition of respiratory activity [21]: 2× MIC (2× MBC); Conc.: lowest multiple of MIC with at least 70% inhibition of respiratory activity [21]: 2× MIC (2× MBC); M. smegmatis Respiration Inhibition [21]: 87.6%
C[n+]1cc2c(c3ccccc31)Nc1ccc(OCc3cn(Cc4ccccc4)nn3)cc1S2 [2d, 5-Methyl-9-(1-benzyl-1H-1,2,3-triazol-4-yl)methoxy-12H-quino [3,4-b][1,4]benzothiazinium chloride]	131 µM	131 µM	32.7 µM	> 524 µM	32.7 µM	> 524 µM	131 µM	> 524 µM	32.7 µM	65.5 µM	131 µM	> 524 µM	2.5 ± 0.1 µM	131 µM	6.3 ± 0.4 µM	8.6 ± 0.7 µM	65.5 µM	> 100 µM	32.7 µM	65.5 µM	
C[n+]1cc2c(c3ccccc31)Nc1cc(OCc3cn(Cc4ccccc4)nn3)ccc1S2 [2e, 5-Methyl-10-(1-benzyl-1H-1,2,3-triazol-4-yl)methoxy-12H-quino [3,4-b][1,4]benzothiazinium chloride]	65.5 µM	65.5 µM	32.7 µM	524 µM	32.7 µM	524 µM	65.5 µM	524 µM	32.7 µM	16.3 µM	32.8 µM	524 µM	3.4 ± 0.3 µM	65.5 µM	8.4 ± 0.6 µM	12.5 ± 0.8 µM	65.5 µM	56.6 ± 4.2 µM	32.7 µM	16.3 µM	
